In publication PMC4061985 (Journal of immunology (Baltimore, Md. : 1950), 2009):
Residues, ends and D or L forms follow the SMILES beside them.

Molecular target: HLA-DR0901 protein (Homo sapiens, UniProt P01903+P01911, A100R/A103E/D57H/D86V/F55Y/F60I/F76Y/I96F/K127E/L162R/M171V/P40D/Q125H/Q99R/R33Q/R42F/S133A/S66N/T210M/V115G/W38K/Y107V/Y59G/Y89S)
Experiment: Peptide binding competition assay, DR0901

| Structure (SMILES) | Kd [nM] |
| --- | --- |
| CC[C@H](C)[C@H](NC(=O)[C@H](CCCCN)NC(=O)[C@H](CC(=O)O)NC(=O)[C@H](CC(C)C)NC(=O)CNC(=O)[C@H](Cc1ccc(O)cc1)NC(=O)[C@H](CC(N)=O)NC(=O)[C@H](Cc1ccccc1)NC(=O)[C@H](CC(N)=O)NC(=O)[C@@H](N)CC(C)C)C(=O)N[C@H](C(=O)N[C@H](C(=O)N[C@@H](CC(=O)O)C(=O)O)C(C)C)[C@@H](C)CC [LNFNYGLDKIIVD] (H-LNFNYGLDKIIVD-OH) | 38 ± 5 |
| CC[C@H](C)[C@H](NC(=O)[C@H](CCCCN)NC(=O)[C@H](CC(=O)O)NC(=O)[C@H](CC(C)C)NC(=O)[C@H](CC(C)C)NC(=O)[C@H](Cc1ccc(O)cc1)NC(=O)[C@H](CC(N)=O)NC(=O)[C@H](Cc1ccccc1)NC(=O)[C@H](CC(N)=O)NC(=O)[C@@H](N)CC(C)C)C(=O)N[C@H](C(=O)N[C@H](C(=O)N[C@@H](CC(=O)O)C(=O)O)C(C)C)[C@@H](C)CC [LNFNYLLDKIIVD] (H-LNFNYLLDKIIVD-OH) | 3600 |
| CC[C@H](C)[C@H](NC(=O)[C@H](CCCCN)NC(=O)[C@H](CC(=O)O)NC(=O)[C@H](CC(C)C)NC(=O)[C@H](CO)NC(=O)[C@H](Cc1ccc(O)cc1)NC(=O)[C@H](CC(N)=O)NC(=O)[C@@H](NC(=O)[C@H](CC(N)=O)NC(=O)[C@@H](N)CC(C)C)C(C)C)C(=O)N[C@H](C(=O)N[C@H](C(=O)N[C@@H](CC(=O)O)C(=O)O)C(C)C)[C@@H](C)CC [LNVNYSLDKIIVD] (H-LNVNYSLDKIIVD-OH) | 440 ± 130 |
| CC[C@H](C)[C@H](NC(=O)[C@H](CCCCN)NC(=O)[C@H](CC(=O)O)NC(=O)[C@H](CC(C)C)NC(=O)[C@H](CO)NC(=O)[C@H](Cc1ccc(O)cc1)NC(=O)[C@H](CC(N)=O)NC(=O)[C@H](Cc1ccccc1)NC(=O)[C@H](CC(N)=O)NC(=O)[C@@H](N)CC(C)C)C(=O)N[C@@H](CCSC)C(=O)N[C@H](C(=O)N[C@@H](CC(=O)O)C(=O)O)C(C)C [LNFNYSLDKIMVD] (H-LNFNYSLDKIMVD-OH) | 280 ± 61 |
| CC[C@H](C)[C@H](NC(=O)[C@H](CCCCN)NC(=O)[C@H](CC(=O)O)NC(=O)[C@H](CC(C)C)NC(=O)[C@H](CO)NC(=O)[C@H](Cc1ccc(O)cc1)NC(=O)[C@H](CC(N)=O)NC(=O)[C@H](CC(C)C)NC(=O)[C@H](CC(N)=O)NC(=O)[C@@H](N)CC(C)C)C(=O)N[C@H](C(=O)N[C@H](C(=O)N[C@@H](CC(=O)O)C(=O)O)C(C)C)[C@@H](C)CC [LNLNYSLDKIIVD] (H-LNLNYSLDKIIVD-OH) | 450 ± 80 |
| CC[C@H](C)[C@H](NC(=O)[C@H](CCCCN)NC(=O)[C@H](CC(=O)O)NC(=O)[C@H](CC(C)C)NC(=O)[C@H](C)NC(=O)[C@H](Cc1ccc(O)cc1)NC(=O)[C@H](CC(N)=O)NC(=O)[C@H](Cc1ccccc1)NC(=O)[C@H](CC(N)=O)NC(=O)[C@@H](N)CC(C)C)C(=O)N[C@H](C(=O)N[C@H](C(=O)N[C@@H](CC(=O)O)C(=O)O)C(C)C)[C@@H](C)CC [LNFNYALDKIIVD] (H-LNFNYALDKIIVD-OH) | 55 ± 10 |
| CC[C@H](C)[C@H](NC(=O)[C@H](CCCCN)NC(=O)[C@H](CC(=O)O)NC(=O)[C@H](CC(C)C)NC(=O)[C@H](CCCNC(=N)N)NC(=O)[C@H](Cc1ccc(O)cc1)NC(=O)[C@H](CC(N)=O)NC(=O)[C@H](Cc1ccccc1)NC(=O)[C@H](CC(N)=O)NC(=O)[C@@H](N)CC(C)C)C(=O)N[C@H](C(=O)N[C@H](C(=O)N[C@@H](CC(=O)O)C(=O)O)C(C)C)[C@@H](C)CC [LNFNYRLDKIIVD] (H-LNFNYRLDKIIVD-OH) | 1230 |
| CC[C@H](C)[C@H](NC(=O)[C@H](CCCCN)NC(=O)[C@@H]1CCCN1C(=O)[C@H](CC(C)C)NC(=O)[C@H](CO)NC(=O)[C@H](Cc1ccc(O)cc1)NC(=O)[C@H](CC(N)=O)NC(=O)[C@H](Cc1ccccc1)NC(=O)[C@H](CC(N)=O)NC(=O)[C@@H](N)CC(C)C)C(=O)N[C@H](C(=O)N[C@H](C(=O)N[C@@H](CC(=O)O)C(=O)O)C(C)C)[C@@H](C)CC [LNFNYSLPKIIVD] (H-LNFNYSLPKIIVD-OH) | 31 ± 2 |
| CC[C@H](C)[C@H](NC(=O)[C@H](CCCCN)NC(=O)[C@H](CC(=O)O)NC(=O)[C@H](CC(C)C)NC(=O)[C@H](CO)NC(=O)[C@H](Cc1ccc(O)cc1)NC(=O)[C@H](CC(N)=O)NC(=O)[C@H](Cc1ccccc1)NC(=O)[C@H](CC(N)=O)NC(=O)[C@@H](N)CC(C)C)C(=O)N[C@@H](CC(C)C)C(=O)N[C@H](C(=O)N[C@@H](CC(=O)O)C(=O)O)C(C)C [LNFNYSLDKILVD] (H-LNFNYSLDKILVD-OH) | 330 ± 68 |
| CC[C@H](C)[C@H](NC(=O)[C@H](CCCCN)NC(=O)[C@H](CO)NC(=O)[C@H](CC(C)C)NC(=O)[C@H](CO)NC(=O)[C@H](Cc1ccc(O)cc1)NC(=O)[C@H](CC(N)=O)NC(=O)[C@H](Cc1ccccc1)NC(=O)[C@H](CC(N)=O)NC(=O)[C@@H](N)CC(C)C)C(=O)N[C@H](C(=O)N[C@H](C(=O)N[C@@H](CC(=O)O)C(=O)O)C(C)C)[C@@H](C)CC [LNFNYSLSKIIVD] (H-LNFNYSLSKIIVD-OH) | 31 ± 3 |
| CC[C@H](C)[C@H](NC(=O)[C@H](CCCNC(=N)N)NC(=O)[C@H](CC(=O)O)NC(=O)[C@H](CC(C)C)NC(=O)[C@H](CO)NC(=O)[C@H](Cc1ccc(O)cc1)NC(=O)[C@H](CC(N)=O)NC(=O)[C@H](Cc1ccccc1)NC(=O)[C@H](CC(N)=O)NC(=O)[C@@H](N)CC(C)C)C(=O)N[C@H](C(=O)N[C@H](C(=O)N[C@@H](CC(=O)O)C(=O)O)C(C)C)[C@@H](C)CC [LNFNYSLDRIIVD] (H-LNFNYSLDRIIVD-OH) | 53 ± 10 |
| CC[C@H](C)[C@H](NC(=O)[C@H](CCCCN)NC(=O)[C@H](CC(=O)O)NC(=O)[C@H](CC(C)C)NC(=O)[C@H](CO)NC(=O)[C@H](Cc1ccc(O)cc1)NC(=O)[C@H](CC(N)=O)NC(=O)[C@H](Cc1ccc(O)cc1)NC(=O)[C@H](CC(N)=O)NC(=O)[C@@H](N)CC(C)C)C(=O)N[C@H](C(=O)N[C@H](C(=O)N[C@@H](CC(=O)O)C(=O)O)C(C)C)[C@@H](C)CC [LNYNYSLDKIIVD] (H-LNYNYSLDKIIVD-OH) | 113 ± 40 |
| CC[C@H](C)[C@H](NC(=O)[C@H](CCCCN)NC(=O)[C@H](CC(=O)O)NC(=O)[C@H](CC(C)C)NC(=O)[C@H](Cc1ccc(O)cc1)NC(=O)[C@H](Cc1ccc(O)cc1)NC(=O)[C@H](CC(N)=O)NC(=O)[C@H](Cc1ccccc1)NC(=O)[C@H](CC(N)=O)NC(=O)[C@@H](N)CC(C)C)C(=O)N[C@H](C(=O)N[C@H](C(=O)N[C@@H](CC(=O)O)C(=O)O)C(C)C)[C@@H](C)CC [LNFNYYLDKIIVD] (H-LNFNYYLDKIIVD-OH) | 3400 |
| CC[C@H](C)[C@H](NC(=O)[C@H](CCCCN)NC(=O)[C@H](CC(=O)O)NC(=O)[C@H](CC(C)C)NC(=O)[C@@H]1CCCN1C(=O)[C@H](Cc1ccc(O)cc1)NC(=O)[C@H](CC(N)=O)NC(=O)[C@H](Cc1ccccc1)NC(=O)[C@H](CC(N)=O)NC(=O)[C@@H](N)CC(C)C)C(=O)N[C@H](C(=O)N[C@H](C(=O)N[C@@H](CC(=O)O)C(=O)O)C(C)C)[C@@H](C)CC [LNFNYPLDKIIVD] (H-LNFNYPLDKIIVD-OH) | 290 ± 70 |
| CC[C@H](C)[C@H](NC(=O)[C@H](CCCCN)NC(=O)[C@H](CC(=O)O)NC(=O)[C@H](CC(C)C)NC(=O)[C@H](CO)NC(=O)[C@H](Cc1ccc(O)cc1)NC(=O)[C@H](CC(N)=O)NC(=O)[C@H](Cc1ccccc1)NC(=O)[C@H](CC(N)=O)NC(=O)[C@@H](N)CC(C)C)C(=O)N[C@@H](CCC(=O)O)C(=O)N[C@H](C(=O)N[C@@H](CC(=O)O)C(=O)O)C(C)C [LNFNYSLDKIEVD] (H-LNFNYSLDKIEVD-OH) | 890 ± 290 |
| CC[C@H](C)[C@H](NC(=O)[C@H](CCCCN)NC(=O)[C@H](CC(=O)O)NC(=O)[C@H](CC(C)C)NC(=O)[C@H](CC(N)=O)NC(=O)[C@H](Cc1ccc(O)cc1)NC(=O)[C@H](CC(N)=O)NC(=O)[C@H](Cc1ccccc1)NC(=O)[C@H](CC(N)=O)NC(=O)[C@@H](N)CC(C)C)C(=O)N[C@H](C(=O)N[C@H](C(=O)N[C@@H](CC(=O)O)C(=O)O)C(C)C)[C@@H](C)CC [LNFNYNLDKIIVD] (H-LNFNYNLDKIIVD-OH) | 290 ± 90 |
| CC[C@H](C)[C@H](NC(=O)[C@H](CCCCN)NC(=O)[C@H](CC(=O)O)NC(=O)[C@H](CC(C)C)NC(=O)[C@H](CO)NC(=O)[C@H](Cc1ccc(O)cc1)NC(=O)[C@H](CC(N)=O)NC(=O)[C@H](Cc1ccccc1)NC(=O)[C@H](CC(N)=O)NC(=O)[C@@H](N)CC(C)C)C(=O)N[C@H](C(=O)N[C@H](C(=O)N[C@@H](CC(=O)O)C(=O)O)C(C)C)[C@@H](C)CC [LNFNYSLDKIIVD] (H-LNFNYSLDKIIVD-OH) | 73 ± 16 |
| CC[C@H](C)[C@H](NC(=O)[C@@H](NC(=O)[C@@H]1CCCN1C(=O)[C@H](CC(=O)O)NC(=O)[C@H](CC(C)C)NC(=O)[C@H](CO)NC(=O)[C@H](Cc1ccc(O)cc1)NC(=O)[C@H](CC(N)=O)NC(=O)[C@H](Cc1ccccc1)NC(=O)[C@H](CC(N)=O)NC(=O)[C@@H](N)CC(C)C)[C@@H](C)CC)C(=O)N[C@H](C(=O)N[C@@H](CC(=O)O)C(=O)O)C(C)C [LNFNYSLDPIIVD] (H-LNFNYSLDPIIVD-OH) | 36 ± 12 |
| CC[C@H](C)[C@H](NC(=O)[C@H](CCCCN)NC(=O)[C@H](CC(=O)O)NC(=O)[C@H](CC(C)C)NC(=O)[C@H](Cc1c[nH]cn1)NC(=O)[C@H](Cc1ccc(O)cc1)NC(=O)[C@H](CC(N)=O)NC(=O)[C@H](Cc1ccccc1)NC(=O)[C@H](CC(N)=O)NC(=O)[C@@H](N)CC(C)C)C(=O)N[C@H](C(=O)N[C@H](C(=O)N[C@@H](CC(=O)O)C(=O)O)C(C)C)[C@@H](C)CC [LNFNYHLDKIIVD] (H-LNFNYHLDKIIVD-OH) | 80 ± 15 |
| CC[C@H](C)[C@H](NC(=O)[C@H](CO)NC(=O)[C@H](CC(=O)O)NC(=O)[C@H](CC(C)C)NC(=O)[C@H](CO)NC(=O)[C@H](Cc1ccc(O)cc1)NC(=O)[C@H](CC(N)=O)NC(=O)[C@H](Cc1ccccc1)NC(=O)[C@H](CC(N)=O)NC(=O)[C@@H](N)CC(C)C)C(=O)N[C@H](C(=O)N[C@H](C(=O)N[C@@H](CC(=O)O)C(=O)O)C(C)C)[C@@H](C)CC [LNFNYSLDSIIVD] (H-LNFNYSLDSIIVD-OH) | 110 ± 45 |
| CC[C@H](C)[C@H](NC(=O)[C@H](CCCCN)NC(=O)[C@H](CC(=O)O)NC(=O)[C@H](CC(C)C)NC(=O)[C@H](CO)NC(=O)[C@H](Cc1ccc(O)cc1)NC(=O)[C@H](CC(N)=O)NC(=O)[C@H](Cc1ccccc1)NC(=O)[C@H](CC(N)=O)NC(=O)[C@@H](N)CC(C)C)C(=O)N[C@@H](CCCNC(=N)N)C(=O)N[C@H](C(=O)N[C@@H](CC(=O)O)C(=O)O)C(C)C [LNFNYSLDKIRVD] (H-LNFNYSLDKIRVD-OH) | 6700 |
